# Reference: US20160219881A1, “HERBICIDALLY ACTIVE 2-HALOGEN-4-ALKYNYL-PHENYL-PYRAZOLIDINE-DIONE OR PYRROLIDINE-DIONE DERIVATIVES” (SYNGENTA LIMITED, priority 2013, published 2016)
# Assays:
# Assay type in all cases: in vivo
# [1] = test system: Echinochloa crus-galli (ECHCG); test: Test 1A glasshouse assay, post-emergence herbicidal activity; settings: 312 h, 13 days after application, read-out: Post-Emergence Herbicidal Activity (% Phytotoxicity) ECHCG
# Protocol: (§1) Seeds of a variety of test species are sown in standard soil (usually sandy soil) in pots. After cultivation for one day (pre-emergence) or after 8 days cultivation (post-emergence) under controlled conditions in a glasshouse (at 24/16° C., day/night; 14 hours light; 65% humidity), the plants are sprayed with an aqueous spray solution derived from the formulation of the technical active ingredient (compound) in acetone/water (50:50) solution containing 0.5% Tween 20 (polyoxyethylene sorbitan monolaurate, CAS RN 9005-64-5). The test plants are then grown under controlled conditions in a glasshouse (at 24/16° C., day/night; 14 hours light; 65% humidity) and watered twice daily. 13 days after application of the test compounds, for pre- and post-emergence, the test is evaluated visually for percentage phytotoxicity to each plant (where 100%=total damage to plant; 0%=no damage to plant).
# (§2) Alopecurus myosuroides (ALOMY), Setaria faberi (SETFA), Echinochloa crus-galli (ECHCG), Amaranthus retroflexus (AMARE), and Abutilon theophasti Medik. (ABUTH, common English name “velvetleaf”). Of these, Alopecurus myosuroides (ALOMY), Setaria faberi (SETFA), and Echinochloa crus-galli (ECHCG) are grassy monocotyledonous weeds. […]
# [2] = test system: Alopecurus myosuroides (ALOMY); test: as above; settings: 312 h, 13 days after application, read-out: Post-Emergence Herbicidal Activity (% Phytotoxicity) ALOMY
# Protocol: as §1, §2
# [3] = test system: Alopecurus myosuroides (ALOMY); test: Test 1A glasshouse assay, pre-emergence herbicidal activity; settings: 312 h, 13 days after application, read-out: Pre-Emergence Herbicidal Activity (% Phytotoxicity) ALOMY
# Protocol: as §1
# Alopecurus myosuroides (ALOMY), Setaria faberi (SETFA), Echinochloa crus-galli (ECHCG), Amaranthus retroflexus (AMARE), and Abutilon theophasti Medik. (ABUTH, common English name “velvetleaf”). Of these, Alopecurus myosuroides (ALOMY), Setaria faberi (SETFA), and Echinochloa crus-galli (ECHCG) are grassy monocotyledonous weeds.
# Lolium perenne (LOLPE), Triticum aestivum (TRZAW, winter wheat), Alopecurus myosuroides (ALOMY), Echinochloa crus-galli (ECHCG), and Avena fatua (AVEFA). All these are grassy monocotyledonous weeds and/or (for wheat) grassy crops.
# [4] = test system: Brachiaria plantaginea (BRAPL); test: Biological Example 3 (Test 2 glasshouse assay), post-emergence herbicidal activity
# Protocol: (§3) Seeds of a variety of monocotyledonous and dicotyledonous test plants are sown in standard soil in pots. The plants are cultivated for one day (for pre-emergence) or for about 12 days (range=10-13 days) (for post-emergence) under controlled conditions in a glasshouse (warm climate species at 24/18° C., cool climate species at 20/16° C., both at day/night; 16 hours light; 65% humidity).
# (§4) An “instant formulation”, known as the “IF50”, containing 50 g/litre (i.e. 5% w/v) of the “technical” (i.e. unformulated) active ingredient is prepared by dissolving the active ingredient in a mixture of organic solvents and emulsifier, details of which are provided in the Table below. This IF50 is then mixed with a small, variable amount of acetone to aid dissolution, before addition of a 0.2% v/v aqueous solution of the adjuvant X-77 (which is a mixture of alkyl aryl polyoxyethylene glycols and free fatty acids in isopropanol, CAS Registry number 11097-66-8), as the aqueous diluent, to form an aqueous spray solution which contains a predetermined concentration of the active ingredient (which varies depending on the application rate of the active ingredient to the plants) and 0.2% v/v of the adjuvant X-77. This aqueous spray solution is then sprayed onto the plants, after one day's cultivation (for pre-emergence) or after about 12 days' cultivation (for post-emergence).
# (§5) The test plants are then grown on, in a glasshouse (greenhouse) under controlled conditions (at either 24/18° C. or 20/16° C. (day/night) as mentioned above; 16 hours light; 65% humidity) and are watered twice daily. Either 15 days after application of the test compound (15 DAA) (for post-emergence), or 20 days after application of the test compound (20 DAA) (for pre-emergence), the test plants are evaluated visually, and an assessed percentage phytotoxicity score is given for each compound application on each plant species (where 100%=total damage to plant; 0%=no damage to plant).
# (§6) Cool climate crop plants: Triticum aestivum (TRZAW, winter wheat), Brassica napus (BRSNN, rape, also called oilseed rape or rapeseed), Beta vulgaris (BEAVA, sugar beet). Warm climate crop plants: Glycine max (GLXMA, soybean). Cool climate (“cool season”) grassy monocotyledonous weeds: Alopecurus myosuroides (ALOMY), Avena fatua (AVEFA), Lolium perenne (LOLPE). Warm climate (“warm season”) grassy monocotyledonous weeds: Setaria faberi (SETFA), SORVU (Sorghum bicolor (L.) Moench ssp. Bicolor, or Sorghum vulgare Pers.), Digitaria sanguinalis (DIGSA), Echinochloa crus-galli (ECHCG), and Brachiaria plantaginea (BRAPL).
# [5] = test system: Echinochloa crus-galli (ECHCG); test: as above
# Protocol: as §3, §4, §5, §6
# Lolium perenne (LOLPE) = test: as above
# Protocol: as §3, §4, §5, §6
# [6] = test system: Alopecurus myosuroides (ALOMY); test: as above
# Protocol: as §3, §4, §5, §6
# [7] = test system: Glycine max (GLXMA, soybean); test: as above
# Protocol: as §3, §4, §5, §6
# [8] = test system: Beta vulgaris (BEAVA, sugar beet); test: as above
# Protocol: as §3, §4, §5, §6
# [9] = test system: SORVU (Sorghum bicolor (L.) Moench ssp. Bicolor, or Sorghum vulgare Pers.); test: as above
# Protocol: as §3, §4, §5, §6
# [10] = test system: Echinochloa crus-galli (ECHCG); test: Test 1A glasshouse assay, pre-emergence herbicidal activity; settings: 312 h, 13 days after application, read-out: Pre-Emergence Herbicidal Activity (% Phytotoxicity) ECHCG
# Protocol: as §1, §2
# Setaria faberi (SETFA) = test: Biological Example 3 (Test 2 glasshouse assay), post-emergence herbicidal activity
# Protocol: as §3, §4, §5, §6
SMILES,inhibition at 250 g/ha [1],inhibition at 250 g/ha [2],inhibition at 250 g/ha [3],Post-Emergence Herbicidal Activity (Percentage Phytotoxicity) BRAPL ([4]; 30 g/ha (rate by row order)),Post-Emergence Herbicidal Activity (Percentage Phytotoxicity) BRAPL ([4]; 125 g/ha (rate by row order)),Post-Emergence Herbicidal Activity (Percentage Phytotoxicity) ECHCG ([5]; 30 g/ha (rate by row order)),Post-Emergence Herbicidal Activity (Percentage Phytotoxicity) ECHCG ([5]; 125 g/ha (rate by row order)),Post-Emergence Herbicidal Activity (Percentage Phytotoxicity) LOLPE (Lolium perenne (LOLPE); 30 g/ha),Post-Emergence Herbicidal Activity (Percentage Phytotoxicity) LOLPE (Lolium perenne (LOLPE); 125 g/ha),Post-Emergence Herbicidal Activity (Percentage Phytotoxicity) ALOMY ([6]; 30 g/ha),Post-Emergence Herbicidal Activity (Percentage Phytotoxicity) ALOMY ([6]; 125 g/ha),Post-Emergence Herbicidal Activity (Percentage Phytotoxicity) GLXMA ([7]; 30 g/ha),Post-Emergence Herbicidal Activity (Percentage Phytotoxicity) GLXMA ([7]; 125 g/ha),Post-Emergence Herbicidal Activity (Percentage Phytotoxicity) BEAVA ([8]; 30 g/ha),Post-Emergence Herbicidal Activity (Percentage Phytotoxicity) BEAVA ([8]; 125 g/ha),Post-Emergence Herbicidal Activity (Percentage Phytotoxicity) SORVU ([9]; 30 g/ha (rate by row order)),Post-Emergence Herbicidal Activity (Percentage Phytotoxicity) SORVU ([9]; 125 g/ha (rate by row order)),inhibition at 250 g/ha [10],Post-Emergence Herbicidal Activity (Percentage Phytotoxicity) SETFA (Setaria faberi (SETFA); 30 g/ha (rate by row order)),Post-Emergence Herbicidal Activity (Percentage Phytotoxicity) SETFA (Setaria faberi (SETFA); 125 g/ha (rate by row order)),further results
CC#Cc1cc(C)c(C2C(=O)N(C)N(C)C2=O)c(C)c1 [Compound A1],40%,0%,0%,70%,100%,70%,90%,30%,80%,10%,70%,30%,70%,0%,10%,70%,80%,30%,–,–,–
"CC#Cc1cc(C)c(C2C(=O)N3CCCCCN3C2=O)c(C)c1 [Compound A23, 2-(2,6-dimethyl-4-prop-1-ynyl-phenyl)-6,7,8,9-tetrahydro-5H-pyrazolo[1,2-a]diazepine-1,3-dione]",80%,80%,90%,0%,10%,0%,20%,0%,40%,0%,50%,0%,70%,10%,40%,50%,70%,90%,0%,70%,–
"CC#Cc1cc(C)c(C2C(=O)C(Cc3ccccn3)N(C)C2=O)c(C)c1 (stereo not drawn) [Compound A50, 3-(2,6-dimethyl-4-prop-1-ynyl-phenyl)-1-methyl-5-(2-pyridylmethyl)pyrrolidine-2,4-dione]",100%,100%,90%,–,–,–,–,–,–,–,–,–,–,–,–,–,–,90%,–,–,inhibition at 15.625 g/ha ([1]; 15.625 g/ha): 80%; inhibition at 62.5 g/ha ([1]; 62.5 g/ha): 100%; inhibition at 15.625 g/ha ([2]; 15.625 g/ha): 30%; inhibition at 62.5 g/ha ([2]; 62.5 g/ha): 90%; inhibition at 62.5 g/ha ([3]; 62.5 g/ha): 70%; inhibition at 62.5 g/ha ([10]; 62.5 g/ha): 70%
CC#Cc1cc(C)c(-c2c(OC(=O)C(C)(C)C)n(C)n(C)c2=O)c(C)c1 [Compound P1],100%,90%,100%,70%,100%,70%,100%,50%,80%,60%,70%,30%,40%,10%,40%,60%,80%,100%,90%,100%,inhibition at 30 g/ha ([1]; 30 g/ha): 80%; inhibition at 30 g/ha ([2]; 30 g/ha): 80%; Post-Emergence Herbicidal Activity (Percentage Phytotoxicity) BRAPL ([4]; 8 g/ha (rate by row order)): 60%; Post-Emergence Herbicidal Activity (Percentage Phytotoxicity) SETFA (Setaria faberi (SETFA); 8 g/ha (rate by row order)): 20%; Post-Emergence Herbicidal Activity (Percentage Phytotoxicity) ECHCG ([5]; 8 g/ha (rate by row order)): 20%; Post-Emergence Herbicidal Activity (Percentage Phytotoxicity) LOLPE (Lolium perenne (LOLPE); 8 g/ha): 30%; Post-Emergence Herbicidal Activity (Percentage Phytotoxicity) ALOMY ([6]; 8 g/ha): 40%; Post-Emergence Herbicidal Activity (Percentage Phytotoxicity) GLXMA ([7]; 8 g/ha): 10%; Post-Emergence Herbicidal Activity (Percentage Phytotoxicity) BEAVA ([8]; 8 g/ha): 30%; Post-Emergence Herbicidal Activity (Percentage Phytotoxicity) SORVU ([9]; 8 g/ha (rate by row order)): 50%
